Measurements from paper PMC10654507, “A cleavable chimeric peptide with targeting and killing domains enhances LPS neutralization and antibacterial properties against multi-drug resistant E. coli” (Communications Biology, 2023).
≈ marks a conversion by molar mass, not a printed value. Like-named read-outs stand apart in the source and are kept apart here. Residues, ends and D or L forms follow the SMILES beside them.

Tests used:
MDR E. coli CVCC195 [1] = test: Serum cytokines (TNF-α, IL-6, IL-1β, IL-10; ELISA) in E. coli-challenged mice; type: in vivo, mouse; set-up: unit not given beside the values; settings: Fig. 5c-f source data, peptide + E. coli challenged mice, mean
Experimental: After E. coli or LPS challenge, the mice were sacrificed at 12 h and 24 h, respectively, and the sera were collected to detect inflammatory cytokines (such as tumor necrosis factor-α (TNF-α), interleukin-6 (IL-6), interleukin-1β (IL-1β), and interleukin-10 (IL-10)) using the enzyme linked immunosorbent assay (ELISA) kits. To evaluate the specific activity of intestinal alkaline phosphatase (IAP), a 2 cm segment of duodenum was rapidly intercepted from the mice and homogenized; the IAP levels in the supernatant were detected by ELISA. In addition, the lungs were collected from the mice infected by E. coli after 12 and 24 h, respectively and were homogenized in sterile PBS for the bacterial counts assay.

MDR E. coli [2] = test: Antibacterial activity after incubation in human serum (inhibition assay); type: cell-based, Escherichia coli; settings: Supplementary Fig. 2c source data, mean
Experimental: Serum stability of R7 and its parent-L7 was tested as previously described with minor modifications[46],[53]. […] The samples were incubated at 4 °C for 15 min and centrifuged for 10 min at 12,000 rpm. The supernatants were analyzed by RP-HPLC or inhibition zone method. Moreover, after incubation in serum for 2 h, R7 was analyzed by matrix assisted laser desorption/ionization-time of flight mass spectrometry (MALDI-TOF MS) and high-performance liquid chromatography-mass spectrometry (HPLC-MS), respectively.
Supplementary Figure 2. Serum stability and release of peptides in human serum. a Detection of the peak area change of peptides in serum by RP-HPLC. b The remaining rate of peptides in bovine serum. c The antibacterial activity of peptides against MDR E. coli in serum detected by an inhibition assay. d The MALDI-TOF mass spectrometry of R7 after incubation in bovine serum for 2 h. The experiments were repeated three times. Data in a and d is representative of three biological replicates.
The results are given as the mean ± SD of three independent experiments in b and c. Different lower-case letters indicate a significant difference between the two groups (p<0.05).
(1 picture or pasted object on this page, not shown here)

S. typhimurium CVCC533 = type: cell-based, Salmonella typhimurium; settings: repeated three times; for MBC: lowest concentration giving 99.9% reduction of the inoculum; for MIC: microtiter broth dilution, 10^5 CFU/mL, 37 °C, 16 ~ 18 h
Experimental: (§1) The minimum inhibitory concentration (MIC) and minimum bactericidal concentration (MBC) of peptides were determined by the microtiter broth dilution method according to Clinical and Laboratory Standards Institute (CLSI) guidelines. […] PBS was used as the negative control. […] The MBC value was calculated as the lowest concentration of peptides resulting in a 99.9% reduction of the original inoculum. All experiments were repeated three times.

E. coli 0111: B4 LPS = test: BC (BODIPY-TR-cadaverine) displacement assay, binding to LPS; set-up: species or system Escherichia coli; unit not given here; settings: Fig. 4a source data, mean
Experimental: The binding of peptides to LPS was determined according to the method described previously[34],[59]. In brief, E. coli 0111: B4 LPS (40 μg/mL) and BODIPY-TR-cadaverine (BC) (10 μM) were mixed in 50 mM Tris buffer (pH = 7.4) in equal proportions and added to a 96-well black plate (180 μL/well) in the dark. Different concentrations of chimeric peptide R7 and its parental (20 μL) were added into each well and detected by a fluorescence spectrophotometry at room temperature (excitation wavelength 580 nm, emission wavelength 620 nm). The change in relative fluorescence was recorded and the BC displacement rate was calculated. Polymycin B (PMB) was used as the positive control.

S. aureus CVCC546 = type: cell-based, Staphylococcus aureus; settings: repeated three times; for MBC: lowest concentration giving 99.9% reduction of the inoculum; for MIC: microtiter broth dilution, 10^5 CFU/mL, 37 °C, 16 ~ 18 h
Experimental: as §1

MDR E. coli [3] = type: in vivo, mouse; set-up: key to therapeutic efficacy, survival, single-animal event: 1 represents a mouse death; 0 represents no death; settings: for therapeutic efficacy, survival, single-animal event: Supplementary Fig. 3a source data, MDR E. coli challenge, one cell per mouse
Experimental: Supplementary Figure 3. Therapeutic eﬀicacy of cleavable chimeric peptide R7 in the mice
challenged with MDR E. coli or LPS After the intraperitoneal injection with MDR E. coli (a) or LPS
(b) at a concentration of LD100, the mice were treated with 7 μmol/kg R7 at 0.5 h and 8 h, respectively.
The mouse survival was recorded for 7 d. The mice injected with MDR E. coli/LPS or saline were used

MDR E. coli CVCC195 [4] = test: Lung injury score (H&E histology), E. coli-challenged mice; type: in vivo, mouse; settings: for lung injury score: 7 μmol/kg i.p. pre-treatment, three mice/group; for Pathological analysis of lung (lung injury score): Fig. 6b source data, peptide + E. coli, mean
Experimental: Lung injury was analyzed histologically at 12 h or 24 h. a Histopathological images of lung sections after staining with hematoxylin and eosin (H&E). Images are presented at a magnification of 100×. b Pathological analysis of lung. Lung injury involves in inflammation (such as peribronchial, perivascular, intrabronchial, and pulmonary interstitial one), bronchial exudate, and alveolar septal thickening, respectively. The specific degree of lung injury of each mouse is assessed by Score 0 (asymptomatic), Score 1 (mild), Score 2 (moderate), and Score 3 (severe), respectively. c The number of counted infiltrated inflammatory cells within processed lung sections from a. Data represent the mean ± SD of three independent experiments. Different lower-case letters indicate a significant difference between the two groups (p < 0.05).
Lung tissues were taken at 12 h and 24 h, respectively, washed with PBS, and fixed in 4% paraformaldehyde overnight. After dehydration in different concentrations of ethanol (including 75%, 85%, 90%, and 95%, respectively), the tissues were embedded in paraffin, sliced, and stained with hematoxylin. Observation was performed under a light microscope. The mice only injected with E. coli, LPS or PBS was regard as the negative or blank control.

[5] = incubation in human serum 0.5 h

Compound	TNFα (MDR E. coli CVCC195 [1]; 12 h)	TNFα (MDR E. coli CVCC195 [1]; 24 h)	antibacterial activity against MDR E. coli in human serum detected by an inhibition assay (MDR E. coli [2]; incubation in human serum 0 h)	antibacterial activity against MDR E. coli in human serum detected by an inhibition assay (MDR E. coli [2]; [5])	antibacterial activity against MDR E. coli in human serum detected by an inhibition assay (MDR E. coli [2]; incubation in human serum 1 h)	antibacterial activity against MDR E. coli in human serum detected by an inhibition assay (MDR E. coli [2]; incubation in human serum 2 h)	antibacterial activity against MDR E. coli in human serum detected by an inhibition assay (MDR E. coli [2]; incubation in human serum 4 h)	antibacterial activity against MDR E. coli in human serum detected by an inhibition assay (MDR E. coli [2]; incubation in human serum 8 h)	MBC (S. typhimurium CVCC533) [µM]	MIC (S. typhimurium CVCC533) [µM]	binding affinity to LPS (E. coli 0111: B4 LPS; peptide concentration 0.05 μM)	binding affinity to LPS (E. coli 0111: B4 LPS; peptide concentration 0.1 μM)	binding affinity to LPS (E. coli 0111: B4 LPS; peptide concentration 0.5 μM)	binding affinity to LPS (E. coli 0111: B4 LPS; peptide concentration 1 μM)	binding affinity to LPS (E. coli 0111: B4 LPS; peptide concentration 5 μM)	binding affinity to LPS (E. coli 0111: B4 LPS; peptide concentration 10 μM)	binding affinity to LPS (E. coli 0111: B4 LPS; peptide concentration 50 μM)	binding affinity to LPS (E. coli 0111: B4 LPS; peptide concentration 100 μM)	MBC (S. aureus CVCC546) [µM]	MIC (S. aureus CVCC546) [µM]	further results
CSCC[C@H](NC(=O)[C@H](CCCNC(=N)N)NC(=O)[C@H](Cc1c[nH]c2ccccc12)NC(=O)[C@H](C)NC(=O)[C@H](Cc1c[nH]c2ccccc12)NC(=O)[C@H](CCCNC(=N)N)NC(=O)[C@H](Cc1c[nH]c2ccccc12)NC(=O)[C@H](C)NC(=O)[C@H](CCCCN)NC(=O)[C@@H](N)Cc1ccccc1)C(=O)N[C@@H](CCCCN)C(=O)N[C@@H](CCCCN)C(=O)N[C@@H](CC(C)C)C(=O)N[C@@H](C)C(=O)N[C@@H](C)C(=O)N1CCC[C@H]1C(=O)N[C@@H](CO)C(=O)O [L7] (H-FKAWRWAWRMKKLAAPS-OH)	75.496	66.872	0.99	0.9833	0.9833	0.8667	0.78	0	18.1 (≈ 38.6 µg/mL)	18.1 (≈ 38.6 µg/mL)	17.2577	18.4019	19.7825	22.1031	24.1888	28.4883	44.9086	71.3338	36.2 (≈ 77.2 µg/mL)	18.1 (≈ 38.6 µg/mL)	therapeutic efficacy, survival, single-animal event (MDR E. coli [3]; event at day 2): 1; therapeutic efficacy, survival, single-animal event (MDR E. coli [3]; event at day 4): 1; therapeutic efficacy, survival, single-animal event (MDR E. coli [3]; event at day 6): 1; lung injury score (MDR E. coli CVCC195 [4]; 12 h after E. coli infection): 7.7 points; lung injury score (MDR E. coli CVCC195 [4]; 24 h after E. coli infection): 5.7 points; Pathological analysis of lung (lung injury score) (MDR E. coli CVCC195 [4]; 12 h): 6.667; Pathological analysis of lung (lung injury score) (MDR E. coli CVCC195 [4]; 24 h): 7
CSCC[C@H](NC(=O)[C@H](CCCNC(=N)N)NC(=O)[C@H](Cc1c[nH]c2ccccc12)NC(=O)[C@H](C)NC(=O)[C@H](Cc1c[nH]c2ccccc12)NC(=O)[C@H](CCCNC(=N)N)NC(=O)[C@H](Cc1c[nH]c2ccccc12)NC(=O)[C@H](C)NC(=O)[C@H](CCCCN)NC(=O)[C@H](Cc1ccccc1)NC(=O)[C@H](CCCNC(=N)N)NC(=O)[C@H](CCCNC(=N)N)NC(=O)[C@H](CCCCN)NC(=O)[C@H](CCCNC(=N)N)NC(=O)[C@H](CCCCN)NC(=O)[C@H](Cc1ccccc1)NC(=O)[C@H](Cc1ccccc1)NC(=O)[C@H](CO)NC(=O)[C@H](C)NC(=O)[C@H](CCCNC(=N)N)NC(=O)[C@@H](NC(=O)[C@H](CCCCN)NC(=O)[C@H](Cc1c[nH]c2ccccc12)NC(=O)[C@H](CCCNC(=N)N)NC(=O)CNC(=O)[C@H](CCC(N)=O)NC(=O)[C@@H](NC(=O)[C@@H](N)CCCNC(=N)N)C(C)C)C(C)C)C(=O)N[C@@H](CCCCN)C(=O)N[C@@H](CCCCN)C(=O)N[C@@H](CC(C)C)C(=O)N[C@@H](C)C(=O)N[C@@H](C)C(=O)N1CCC[C@H]1C(=O)N[C@@H](CO)C(=O)O [R7] (H-RVQGRWKVRASFFKRKRRFKAWRWAWRMKKLAAPS-OH)	51.956	49.098	0.8933	0.91	0.91	0.8967	0.9033	0.8967	2.26 (≈ 10.1 µg/mL)	1.13 (≈ 5.06 µg/mL)	20.2273	21.6184	51.5852	77.8834	85.6571	94.6127	98.4665	96.0469	2.26 (≈ 10.1 µg/mL)	2.26 (≈ 10.1 µg/mL)	mouse survival, therapeutic treatment (MDR E. coli [3]; MDR E. coli at LD100 i.p., then 7 μmol/kg R7 at 0.5 h and 8 h, recorded 7 d): ≤ 20%; therapeutic efficacy, survival, single-animal event (MDR E. coli [3]; event at day 1): 1; therapeutic efficacy, survival, single-animal event (MDR E. coli [3]; event at day 2): 1; therapeutic efficacy, survival, single-animal event (MDR E. coli [3]; event at day 3): 1; therapeutic efficacy, survival, single-animal event (MDR E. coli [3]; event at day 5): 1; lung injury score (MDR E. coli CVCC195 [4]; 12 h after E. coli infection): 4.3 points; lung injury score (MDR E. coli CVCC195 [4]; 24 h after E. coli infection): 2.0 points; Pathological analysis of lung (lung injury score) (MDR E. coli CVCC195 [4]; 12 h): 2.333; Pathological analysis of lung (lung injury score) (MDR E. coli CVCC195 [4]; 24 h): 2
